In brackets after ≈: the same amount, converted by molar mass.
Key:
Staphylococcus aureus = assay: Antibacterial activity against Staphylococcus aureus MTCC 3160 by agar dilution method; format: functional
[1] = tested on: Staphylococcus epidermidis; assay: Antibacterial activity against Staphylococcus epidermidis MTCC 2639 by agar dilution method; format: functional
Bacillus subtilis = assay: Antibacterial activity against Bacillus subtilis MTCC 121 by agar dilution method; format: functional
Salmonella typhi = assay: Antibacterial activity against Salmonella typhi MTCC 733 by agar dilution method; format: functional, Salmonella enterica subsp. enterica serovar Typhi; details: Salmonella enterica
Escherichia coli = assay: Antibacterial activity against Escherichia coli MTCC 51 by agar dilution method; format: functional

Compound | MIC (Staphylococcus aureus) | MIC [1] | MIC (Bacillus subtilis) | MIC (Salmonella typhi) | MIC (Escherichia coli)
C/C(=N\n1c(S)nnc(C)c1=O)c1ccccn1 | 16 µg/mL (≈ 61.2 µM) | 32 µg/mL (≈ 122 µM) | 8 µg/mL (≈ 30.6 µM) | 16 µg/mL (≈ 61.2 µM) | 16 µg/mL (≈ 61.2 µM)
N[C@@H](C(=O)N[C@@H]1C(=O)N2C(C(=O)O)=C(Cl)CS[C@H]12)c1ccccc1 [CEFACLOR ANHYDROUS] | 16 µg/mL (≈ 43.5 µM) | 32 µg/mL (≈ 87 µM) | 8 µg/mL (≈ 21.8 µM) | 8 µg/mL (≈ 21.8 µM) | 4 µg/mL (≈ 10.9 µM)
